According to PubChem BioAssay AID248 (DTP/NCI, 2004):
Values joined by “and” are separate entries in the source; they are usually repeats but may differ in a detail not shown here. Equal values may be shown once. Inconclusive results and toxic doses are left out.

System: L1210 leukemia ip in BDF1 mice, survival T/C
Assay: NCI In Vivo Anticancer Drug Screen. Data for tumor model L1210 Leukemia (intraperitoneal) in B6D2F1 (BDF1) mice
Details: endpoint: mean survival time, higher = longer survival
How it was run: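 Transplantable tumor model; survival measured in treated vs vehicle control mice. Value = treated/control.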

[1] = dose: 100.0 mg/kg/injection, schedule: Q01DX001 (ip), vehicle: saline
[2] = dose: 200.0 mg/kg/injection, schedule: Q01DX001 (ip), vehicle: saline
[3] = dose: 400.0 mg/kg/injection, schedule: Q01DX001 (ip), vehicle: saline

## CCCCCCCCC(=O)N(C(C)C)C(C)C
dose: 100.0 mg/kg/injection, schedule: Q01DX009 (ip), vehicle: carboxymethylcellulose (CMC)
  T/C: 93 % of control and 102 % of control
dose: 100.0 mg/kg/injection, schedule: Q04DX002 (ip), vehicle: carboxymethylcellulose (CMC)
  T/C: 98 % of control and 101 % of control
dose: 200.0 mg/kg/injection, schedule: Q01DX009 (ip), vehicle: carboxymethylcellulose (CMC)
  T/C: 93 % of control and 96 % of control
dose: 200.0 mg/kg/injection, schedule: Q04DX002 (ip), vehicle: carboxymethylcellulose (CMC)
  T/C: 95 % of control and 92 % of control
dose: 400.0 mg/kg/injection, schedule: Q01DX009 (ip), vehicle: carboxymethylcellulose (CMC)
  T/C: 92 % of control
dose: 400.0 mg/kg/injection, schedule: Q04DX002 (ip), vehicle: carboxymethylcellulose (CMC)
  T/C: 87 % of control and 92 % of control

## CCN(CC)CCOC(=O)c1ccccc1N(c1ccccc1)c1ccccc1
dose: 25.0 mg/kg/injection, schedule: Q01DX009 (ip), vehicle: saline
  T/C: 98 % of control
dose: 50.0 mg/kg/injection, schedule: Q01DX009 (ip), vehicle: saline
  T/C: 98 % of control
dose: 62.5 mg/kg/injection, schedule: Q01DX015 (ip), vehicle: saline
  T/C: 91 % of control
[1]
  T/C: 92 % of control
dose: 100.0 mg/kg/injection, schedule: Q01DX009 (ip), vehicle: saline
  T/C: 98 % of control
dose: 100.0 mg/kg/injection, schedule: Q04DX003 (ip), vehicle: acetone
  T/C: 96 % of control
dose: 125.0 mg/kg/injection, schedule: Q01DX015 (ip), vehicle: saline
  T/C: 95 % of control
dose: 150.0 mg/kg/injection, schedule: Q01DX009 (ip), vehicle: acetone
  T/C: 96 % of control
[2]
  T/C: 103 % of control
[3]
  T/C: 98 % of control

## Cc1nc(Cl)ncc1N
[1]
  T/C: 100 % of control
[2]
  T/C: 98 % of control
[3]
  T/C: 98 % of control

## Cc1ccc2nc3c4ccccc4c4ccccc4c3nc2c1
dose: 100.0 mg/kg/injection, schedule: Q01DX009 (ip), vehicle: Klucel (hydroxypropylcellulose) (HPC)
  T/C: 101 % of control
dose: 100.0 mg/kg/injection, schedule: Q04DX003 (ip), vehicle: Klucel (hydroxypropylcellulose) (HPC)
  T/C: 105 % of control
dose: 200.0 mg/kg/injection, schedule: Q01DX009 (ip), vehicle: Klucel (hydroxypropylcellulose) (HPC)
  T/C: 102 % of control
dose: 200.0 mg/kg/injection, schedule: Q04DX003 (ip), vehicle: Klucel (hydroxypropylcellulose) (HPC)
  T/C: 105 % of control
dose: 400.0 mg/kg/injection, schedule: Q01DX009 (ip), vehicle: Klucel (hydroxypropylcellulose) (HPC)
  T/C: 101 % of control
dose: 400.0 mg/kg/injection, schedule: Q04DX003 (ip), vehicle: Klucel (hydroxypropylcellulose) (HPC)
  T/C: 98 % of control

## Cc1noc(-c2ccc([N+](=O)[O-])o2)n1
dose: 100.0 mg/kg/injection, schedule: Q04DX002 (ip), vehicle: Klucel (hydroxypropylcellulose) (HPC)
  T/C: 94 % of control
dose: 200.0 mg/kg/injection, schedule: Q04DX002 (ip), vehicle: Klucel (hydroxypropylcellulose) (HPC)
  T/C: 105 % of control

## COC1CCCC[CH]1[Hg][Br] (configuration not stated)
dose: 0.78 mg/kg/injection, schedule: Q01DX009 (ip), vehicle: saline with Tween-80
  T/C: 90 % of control
dose: 1.56 mg/kg/injection, schedule: Q01DX009 (ip), vehicle: saline with Tween-80
  T/C: 96 % of control
dose: 3.13 mg/kg/injection, schedule: Q01DX009 (ip), vehicle: saline with Tween-80
  T/C: 96 % of control
dose: 12.5 mg/kg/injection, schedule: Q01DX009 (ip), vehicle: saline with Tween-80
  T/C: 93 % of control

## C(CC1CO1)CC1OC1CC1CO1 (configuration not stated)
dose: 15.0 mg/kg/injection, schedule: Q01DX009 (ip), vehicle: Klucel (hydroxypropylcellulose) (HPC)
  T/C: 102 % of control
dose: 18.0 mg/kg/injection, schedule: Q04DX003 (ip), vehicle: saline with Tween-80
  T/C: 110 % of control
dose: 26.0 mg/kg/injection, schedule: Q04DX003 (ip), vehicle: saline with Tween-80
  T/C: 110 % of control
dose: 30.0 mg/kg/injection, schedule: Q01DX009 (ip), vehicle: Klucel (hydroxypropylcellulose) (HPC)
  T/C: 105 % of control
dose: 39.0 mg/kg/injection, schedule: Q04DX003 (ip), vehicle: saline with Tween-80
  T/C: 106 % of control
dose: 40.0 mg/kg/injection, schedule: Q04DX003 (ip), vehicle: saline
  T/C: 108 % of control
dose: 45.0 mg/kg/injection, schedule: Q01DX009 (ip), vehicle: Klucel (hydroxypropylcellulose) (HPC)
  T/C: 108 % of control
dose: 59.0 mg/kg/injection, schedule: Q04DX003 (ip), vehicle: saline with Tween-80
  T/C: 108 % of control
dose: 60.0 mg/kg/injection, schedule: Q01DX009 (ip), vehicle: Klucel (hydroxypropylcellulose) (HPC)
  T/C: 113 % of control
dose: 80.0 mg/kg/injection, schedule: Q04DX003 (ip), vehicle: saline
  T/C: 118 % of control
dose: 89.0 mg/kg/injection, schedule: Q04DX003 (ip), vehicle: saline with Tween-80
  T/C: 117 % of control
dose: 120.0 mg/kg/injection, schedule: Q01DX009 (ip), vehicle: other
  T/C: 119 % of control
dose: 133.0 mg/kg/injection, schedule: Q01DX009 (ip), vehicle: saline with Tween-80
  T/C: 97 % of control
dose: 133.0 mg/kg/injection, schedule: Q04DX003 (ip), vehicle: saline with Tween-80
  T/C: 115 % of control
dose: 160.0 mg/kg/injection, schedule: Q04DX003 (ip), vehicle: saline
  T/C: 154 % of control

## COc1cc(/C=N/N=C(N)N)ccc1O
dose: 15.0 mg/kg/injection, schedule: Q01DX Z (ip), vehicle: saline
  T/C: 95 % of control
dose: 30.0 mg/kg/injection, schedule: Q01DX Z (ip), vehicle: saline
  T/C: 88 % of control
dose: 60.0 mg/kg/injection, schedule: Q01DX Z (ip), vehicle: saline
  T/C: 101 % of control
dose: 120.0 mg/kg/injection, schedule: Q01DX Z (ip), vehicle: saline
  T/C: 97 % of control
dose: 240.0 mg/kg/injection, schedule: Q01DX Z (ip), vehicle: saline
  T/C: 89 % of control

## Cc1c2ccc3ccccc3c2cc2cccc(Cl)c12
dose: 100.0 mg/kg/injection, schedule: Q01DX001 (ip), vehicle: Klucel (hydroxypropylcellulose) (HPC)
  T/C: 97 % of control
dose: 200.0 mg/kg/injection, schedule: Q01DX001 (ip), vehicle: Klucel (hydroxypropylcellulose) (HPC)
  T/C: 98 % of control
dose: 400.0 mg/kg/injection, schedule: Q01DX001 (ip), vehicle: Klucel (hydroxypropylcellulose) (HPC)
  T/C: 101 % of control

## COc1ccc(OC)c2c1C(=O)c1ccccc1C2=O
dose: 25.0 mg/kg/injection, schedule: Q01DX009 (ip), vehicle: saline with Tween-80
  T/C: 107 % of control
dose: 50.0 mg/kg/injection, schedule: Q01DX001 (ip), vehicle: carboxymethylcellulose (CMC)
  T/C: 102 % of control
dose: 50.0 mg/kg/injection, schedule: Q01DX009 (ip), vehicle: saline with Tween-80
  T/C: 104 % of control
dose: 100.0 mg/kg/injection, schedule: Q01DX001 (ip), vehicle: carboxymethylcellulose (CMC)
  T/C: 108 % of control
dose: 100.0 mg/kg/injection, schedule: Q01DX009 (ip), vehicle: saline with Tween-80
  T/C: 104 % of control
dose: 200.0 mg/kg/injection, schedule: Q01DX001 (ip), vehicle: carboxymethylcellulose (CMC)
  T/C: 102 % of control
dose: 200.0 mg/kg/injection, schedule: Q01DX009 (ip), vehicle: saline with Tween-80
  T/C: 107 % of control
dose: 400.0 mg/kg/injection, schedule: Q01DX001 (ip), vehicle: carboxymethylcellulose (CMC)
  T/C: 113 % of control
dose: 400.0 mg/kg/injection, schedule: Q01DX009 (ip), vehicle: saline with Tween-80
  T/C: 111 % of control

## COc1ccc(O)cc1C
dose: 100.0 mg/kg/injection, schedule: Q04DX003 (ip), vehicle: other
  T/C: 104 % of control
dose: 200.0 mg/kg/injection, schedule: Q04DX003 (ip), vehicle: other
  T/C: 107 % of control
dose: 400.0 mg/kg/injection, schedule: Q04DX003 (ip), vehicle: other
  T/C: 117 % of control

## COc1ccc(CCNC(=O)Cc2ccccc2[N+](=O)[O-])cc1OC
dose: 10.0 mg/kg/injection, schedule: Q01DX001 (ip), vehicle: carboxymethylcellulose (CMC)
  T/C: 100 % of control
dose: 20.0 mg/kg/injection, schedule: Q01DX001 (ip), vehicle: carboxymethylcellulose (CMC)
  T/C: 100 % of control
dose: 40.0 mg/kg/injection, schedule: Q01DX001 (ip), vehicle: carboxymethylcellulose (CMC)
  T/C: 96 % of control
dose: 80.0 mg/kg/injection, schedule: Q01DX001 (ip), vehicle: carboxymethylcellulose (CMC)
  T/C: 96 % of control

## CN(C)CCOC(=O)N1c2ccccc2C(C)(C)c2ccccc21
dose: 5.8 mg/kg/injection, schedule: Q01DX001 (ip), vehicle: water
  T/C: 93 % of control
dose: 11.5 mg/kg/injection, schedule: Q01DX001 (ip), vehicle: water
  T/C: 98 % of control
dose: 23.0 mg/kg/injection, schedule: Q01DX001 (ip), vehicle: water
  T/C: 91 % of control
dose: 44.4 mg/kg/injection, schedule: Q01DX001 (ip), vehicle: water
  T/C: 95 % of control
dose: 50.0 mg/kg/injection, schedule: Q01DX001 (ip), vehicle: water
  T/C: 100 % of control
dose: 66.7 mg/kg/injection, schedule: Q01DX001 (ip), vehicle: water
  T/C: 97 % of control
dose: 150.0 mg/kg/injection, schedule: Q01DX001 (ip), vehicle: water
  T/C: 95 % of control
